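96-well plates; 48 h exposure; 5 concentrations. Endpoints by linear interpolation between flanking doses. Not reached: highest tested concentration assigned. GI50 = concentration required for 50% inhibition of growth.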 Calls of active or inactive are those of the source. No stated cut-off is given here; in the data, active = GI50 up to about 1.1 µM and inactive = higher.
Assays:
Assay in all cases: NCI tumour cell line growth inhibition, 48 h
DLD-1 = tested on: DLD-1
DMS-114 = tested on: DMS-114
DMS-273 = tested on: DMS-273
LXFL 529 = tested on: LXFL 529
M19-MEL = tested on: M19-MEL
SNB-78 = tested on: SNB-78
HOP-18 = tested on: HOP-18
RXF 631 = tested on: RXF 631
XF498 = tested on: XF498

Row | Structure (SMILES) | GI50 (DLD-1) | GI50 (DMS-114) | GI50 (DMS-273) | GI50 (LXFL 529) | GI50 (M19-MEL) | GI50 (SNB-78) | GI50 (HOP-18) | GI50 (RXF 631) | GI50 (XF498)
1 | O=C(CC1=Nc2nnc(-c3nnc4n3C(=O)C(CC(=O)C3CC3)=N4)n2C1=O)C1CC1 | > 100 µM (inactive) | > 100 µM (inactive) | > 100 µM (inactive) | > 100 µM (inactive) | > 100 µM (inactive) | > 100 µM (inactive) |  |  | 
2 | COC(=O)/C(=N/Nc1cccc(Cl)c1)C(C(=O)C(=O)Nc1cccc(Cl)c1C)c1nc2ccccc2nc1C (configuration not stated) | 34.5 µM (inactive) | 45 µM (inactive) |  |  | 54 µM (inactive) |  |  |  | 
3 | C=CC(=O)C#CC#CC/C=C\CCCCCCC | 8.79 µM (inactive) | 10.3 µM (inactive) | > 20.6 µM (inactive) | 7.74 µM (inactive) | > 20.6 µM (inactive) | 10.3 µM (inactive) |  |  | 
4 | COC[n+]1cc2cc(OC)c(OC)cc2c2ccc3cc(OC)c(OC)cc3c21 | > 100 µM (inactive) | > 100 µM (inactive) |  | > 100 µM (inactive) | > 100 µM (inactive) | > 100 µM (inactive) | > 100 µM (inactive) | > 100 µM (inactive) | 
5 | CC[C@]12C=CCN3CCC4(c5cc([C@@]6(C(=O)OC)CC7CN(CCc8c6[nH]c6ccccc86)CC6CCCCC67)c(OC)cc5N(C)C4[C@](O)(C(=O)OC)C1OC(C)=O)[C@@H]32 (some centres not stated) | 0.0269 µM (active) | < 0.01 µM (active) | < 0.01 µM (active) | < 0.01 µM (active) | < 0.01 µM (active) | < 0.01 µM (active) |  |  | 0.0469 µM (active)
6 | NCCn1ccc(NC(c2ccccc2)(c2ccccc2)c2ccccc2)nc1=O | 63.1 µM (inactive) | 18.6 µM (inactive) |  | 16.7 µM (inactive) | 20.9 µM (inactive) | 20.6 µM (inactive) | > 100 µM (inactive) |  | 13.4 µM (inactive)
7 | CCOC(=O)C1S/C(=N\c2ccccc2)N=C1C (configuration not stated) | 49.9 µM (inactive) | 59 µM (inactive) |  | 65.8 µM (inactive) | > 100 µM (inactive) | 83 µM (inactive) | > 100 µM (inactive) | > 100 µM (inactive) | > 100 µM (inactive)
8 | COc1ccc(/C=N/NC(=O)CSc2nc(-c3ccccc3)c(-c3ccccc3)[nH]2)cc1OC | 42.6 µM (inactive) | 46.1 µM (inactive) | 20.4 µM (inactive) | 22.1 µM (inactive) | 18.4 µM (inactive) |  |  |  | 
9 | N#C/C(=C\c1ccc(O)c(O)c1)C(=O)NC1CCC(CC2CCC(NC(=O)/C(C#N)=C/c3ccc(O)c(O)c3)CC2)CC1 (configuration not stated) | 0.415 µM (active) |  | 0.222 µM (active) | 0.433 µM (active) | 0.443 µM (active) | 1.59 µM (inactive) | 2.38 µM (inactive) |  | 2.07 µM (inactive)
10 | O/N=C\C(=N/O)Nc1ccc(Cc2ccc(NC(/C=N\O)=N/O)cc2)cc1 | 23.9 µM (inactive) | 69.3 µM (inactive) | 43.9 µM (inactive) | 39.4 µM (inactive) | 47 µM (inactive) | > 100 µM (inactive) | 37.9 µM (inactive) |  | 71.3 µM (inactive)
11 | COC(=O)/C(=C/c1ccc(OC)cc1)C(C(=O)O)=C(C)C | > 100 µM (inactive) | > 100 µM (inactive) | > 100 µM (inactive) | > 100 µM (inactive) | > 100 µM (inactive) | > 100 µM (inactive) | > 100 µM (inactive) |  | 
12 | COc1ccc(C2NC3=C(CCCC3)N2)cc1 | 88.1 µM (inactive) | 75.5 µM (inactive) | 54.2 µM (inactive) | 59.8 µM (inactive) | 41.6 µM (inactive) | > 100 µM (inactive) |  |  | 59 µM (inactive)
13 | O=S1(=O)CS(=O)(=O)OCCO1 | 54.7 µM (inactive) | 37.5 µM (inactive) | 51.1 µM (inactive) | > 100 µM (inactive) | 48.8 µM (inactive) | 17.4 µM (inactive) | > 100 µM (inactive) | 47.8 µM (inactive) | 15 µM (inactive)
14 | CCOC(=O)c1cccnc1C(OC(C)=O)OC(C)=O | > 100 µM (inactive) | > 100 µM (inactive) | > 100 µM (inactive) | > 100 µM (inactive) | > 100 µM (inactive) | > 100 µM (inactive) | > 100 µM (inactive) |  | > 100 µM (inactive)
15 | C1CN2N3CCCC23C1 (configuration not stated) | > 100 µM (inactive) | > 100 µM (inactive) | > 100 µM (inactive) | > 100 µM (inactive) | > 100 µM (inactive) | > 100 µM (inactive) | > 100 µM (inactive) |  | > 100 µM (inactive)
16 | O=Cc1ccc(-c2cccs2)s1 | > 63.1 µM (inactive) | > 90.8 µM (inactive) | > 100 µM (inactive) | 1.76 µM (inactive) | > 100 µM (inactive) | > 100 µM (inactive) | > 62.8 µM (inactive) | 5.08 µM (inactive) | 4.33 µM (inactive)
17 | O=C1C(=O)N(c2ccc(Cl)cc2)C(=O)/C(=N/c2cccc3c(=O)[nH][nH]c(=O)c23)C1c1nc2ccccc2o1 (configuration not stated) | > 100 µM (inactive) |  | > 100 µM (inactive) | > 100 µM (inactive) | > 100 µM (inactive) | > 100 µM (inactive) | > 100 µM (inactive) | > 100 µM (inactive) | 
18 | O=[PH](O)c1ccccn1 | > 100 µM (inactive) | > 100 µM (inactive) | > 100 µM (inactive) | > 100 µM (inactive) | > 100 µM (inactive) | > 100 µM (inactive) |  |  | > 100 µM (inactive)
19 | C/C=C/C1=C(Cl)C(=O)[C@@H](Cl)[C@@]1(O)C(=O)OC [(+)-CRYPTOSPORIPSIN] | 2.28 µM (inactive) |  | 3.54 µM (inactive) | 2.64 µM (inactive) | 2.55 µM (inactive) | 5.18 µM (inactive) | 4.09 µM (inactive) | 10.5 µM (inactive) | 2.82 µM (inactive)
20 | NC(C(=O)O)c1ccc(C(=O)O)cc1 (configuration not stated) | > 100 µM (inactive) | > 100 µM (inactive) |  | > 100 µM (inactive) | > 100 µM (inactive) | > 100 µM (inactive) |  | > 100 µM (inactive) | > 100 µM (inactive)
21 | CC1OC(OCC2OC(Oc3c(-c4ccc(O)cc4)oc4cc(O)cc(O)c4c3=O)C(OC3OCC(O)(CO)C3O)C(O)C2O)C(O)C(O)C1O (configuration not stated) | 36.8 µM (inactive) | 32 µM (inactive) | 49.2 µM (inactive) | > 100 µM (inactive) | 21.7 µM (inactive) | > 100 µM (inactive) | > 100 µM (inactive) | > 100 µM (inactive) | 
22 | O=C(OCc1ccccc1)N1N=NC2C3CC(OCc4ccccc4)(OCc4ccccc4)C(O3)C21 (configuration not stated) | 16.9 µM (inactive) | 8.99 µM (inactive) | 15.5 µM (inactive) | 18.8 µM (inactive) | 24.4 µM (inactive) | 43.7 µM (inactive) | 20.6 µM (inactive) | 46 µM (inactive) | 22.7 µM (inactive)
23 | COC1CC(OS(=O)(=O)c2ccc([N+](=O)[O-])cc2)C(OC(=O)c2ccccc2)C(C)O1 (configuration not stated) | > 100 µM (inactive) |  | > 100 µM (inactive) | > 100 µM (inactive) | > 100 µM (inactive) | > 100 µM (inactive) | > 100 µM (inactive) | 58.5 µM (inactive) | 31.8 µM (inactive)
24 | Cc1cc(NS(=O)(=O)c2ccc(Nc3c4ccccc4nc4c(C(=O)N5CCN(CCOS(C)(=O)=O)CC5)cccc34)cc2)no1 | > 100 µM (inactive) | > 100 µM (inactive) | > 100 µM (inactive) |  | > 100 µM (inactive) | > 100 µM (inactive) |  |  | > 100 µM (inactive)
25 | O=C1CCC(=O)C(C(=O)CCC(=O)Nc2cccc(Cl)c2)C1 (configuration not stated) | > 100 µM (inactive) |  |  | > 100 µM (inactive) | > 100 µM (inactive) |  | > 100 µM (inactive) |  | > 100 µM (inactive)
26 | COC(=O)CSc1nnc(-c2ccccc2)[nH]1 | > 100 µM (inactive) | > 100 µM (inactive) | > 100 µM (inactive) | > 100 µM (inactive) | > 100 µM (inactive) | > 100 µM (inactive) | > 100 µM (inactive) |  | 
27 | CCN(CC)c1ccc(/C=C2/C[N+](C)(C)C/C(=C/c3ccc(N(CC)CC)cc3)C2=O)cc1 | 9.59 µM (inactive) | 1.41 µM (inactive) |  | 1.1 µM (active) | 1.45 µM (inactive) | 2.82 µM (inactive) | 6.61 µM (inactive) | > 30.3 µM (inactive) | 2.48 µM (inactive)
28 | Cc1c(/C=N/N=C/c2[nH]c(C(=O)OC(C)(C)C)c(C)c2C)[nH]c(C(=O)OC(C)(C)C)c1C | > 100 µM (inactive) | > 100 µM (inactive) | > 100 µM (inactive) | > 100 µM (inactive) | > 100 µM (inactive) | > 100 µM (inactive) | > 100 µM (inactive) |  | 
29 | CCOC(=O)CC1COc2ccc3c(c21)OCO3 (configuration not stated) | > 100 µM (inactive) | > 100 µM (inactive) | > 100 µM (inactive) | > 100 µM (inactive) | > 100 µM (inactive) | > 100 µM (inactive) | > 100 µM (inactive) |  | > 100 µM (inactive)

Source: ChEMBL document CHEMBL1201862, “PubChem BioAssay data set” (2004)
